The assay deals with T1, huPPARγ (Homo sapiens, UniProt P37231).
T1 sequence (P37231 1-505): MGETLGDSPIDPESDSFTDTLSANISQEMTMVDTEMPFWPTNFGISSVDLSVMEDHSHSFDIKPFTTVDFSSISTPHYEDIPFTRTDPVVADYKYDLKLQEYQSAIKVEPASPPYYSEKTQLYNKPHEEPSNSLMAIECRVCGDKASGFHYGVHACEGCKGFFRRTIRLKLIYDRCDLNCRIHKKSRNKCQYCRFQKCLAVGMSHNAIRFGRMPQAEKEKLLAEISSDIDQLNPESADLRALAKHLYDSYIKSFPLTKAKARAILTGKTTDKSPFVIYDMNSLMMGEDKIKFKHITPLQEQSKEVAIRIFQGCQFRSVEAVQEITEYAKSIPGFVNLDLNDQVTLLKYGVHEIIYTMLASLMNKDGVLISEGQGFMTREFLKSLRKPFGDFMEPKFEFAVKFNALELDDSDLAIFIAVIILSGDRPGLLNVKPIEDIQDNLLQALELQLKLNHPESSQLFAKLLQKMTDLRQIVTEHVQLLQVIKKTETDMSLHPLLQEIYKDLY
T1 sequence (P19793 1-462 partner): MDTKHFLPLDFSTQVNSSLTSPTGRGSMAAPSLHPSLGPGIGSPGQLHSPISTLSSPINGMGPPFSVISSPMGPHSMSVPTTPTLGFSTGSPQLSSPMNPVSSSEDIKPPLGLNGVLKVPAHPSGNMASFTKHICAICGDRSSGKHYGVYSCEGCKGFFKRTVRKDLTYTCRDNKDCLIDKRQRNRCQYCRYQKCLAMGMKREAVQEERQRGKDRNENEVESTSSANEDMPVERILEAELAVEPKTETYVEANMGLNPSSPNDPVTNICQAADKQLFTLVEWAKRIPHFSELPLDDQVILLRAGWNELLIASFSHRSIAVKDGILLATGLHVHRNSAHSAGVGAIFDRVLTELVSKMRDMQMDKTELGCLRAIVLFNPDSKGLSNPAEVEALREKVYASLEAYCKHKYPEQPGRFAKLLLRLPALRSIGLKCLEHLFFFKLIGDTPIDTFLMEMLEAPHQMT
The experiment in a line: Cotransfection assay in CV-1 cells, AOX PPRE luciferase reporter. Format: cell-based. Set-up: expressed in transfected cells; host or cells: CV-1 cells. To be noted: cotransfection efficacy relative to PPARγ agonist reference molecule, read-out: huPPARγ CTF Eff. (%). As to the method:
DNA-dependent binding (ABCD binding) was carried out using SPA technology with PPAR receptors. Tritium-labeled PPARα and PPARγ agonists were used as radioligands for generating displacement curves and IC50 values with compounds of the invention. Cotransfection assays were carried out in CV-1 cells. The reporter plasmid contained an acylCoA oxidase (AOX) PPRE and TK promoter upstream of the luciferase reporter cDNA. Appropriate PPARs and RXRα were constitutively expressed using plasmids containing the CMV promoter. […] In order to eliminate such interference, a GAL4 chimeric system was used in which the DNA binding domain of the transfected PPAR was replaced by that of GAL4, and the GAL4 response element was utilized in place of the AOX PPRE. Cotransfection efficacy was determined relative to PPARα agonist and PPARγ agonist reference molecules. Efficacies were determined by computer fit to a concentration-response curve, or in some cases at a single high concentration of agonist (10 μM). For binding or cotransfection studies with receptors other than PPARs, similar assays were carried out using appropriate ligands, receptors, reporter constructs, etc., for that particular receptor.
These studies were carried out to evaluate the ability of compounds of the invention to bind to and/or activate various nuclear transcription factors, particularly huPPARα (“hu” indicates “human”) and huPPARγ. These studies provide in vitro data concerning efficacy and selectivity of compounds of the invention. Furthermore, binding and cotransfection data for compounds of the invention were compared with corresponding data for marketed compounds that act on either huPPARα or huPPARγ.
Binding and cotransfection data for representative compounds of the invention are compared with corresponding data for reference compounds in Table II.
Turning to `Cc1oc(-c2ccccc2)nc1CCOc1ccc(OC(C)(C)C(=O)O)cc1` [Example 1, 2-Methyl-2-{4-[2-(5-methyl-2-phenyloxazol-4-yl)ethoxy]phenoxy}propionic acid], the Emax was found to be 69%.
The value for `Cc1oc(-c2cccc(Br)c2)nc1CCOc1ccc(OC(C)(C)C(=O)O)cc1` [Example 9A, 2-(4-{2-[2-(3-Bromophenyl)-5-methyloxazol-4-yl]ethoxy}phenoxy)-2-methylpropionic acid] was 60%; that for `CCc1cccc(-c2nc(CCOc3ccc(OC(C)(C)C(=O)O)cc3)c(C)o2)c1` [Example 12, 2-(4-{2-[2-(3-Ethylphenyl)-5-methyloxazol-4-yl]ethoxy}phenoxy)-2-methylpropionic acid] was 66%; that for `Cc1oc(-c2cccc(CCc3ccccc3)c2)nc1CCOc1ccc(OC(C)(C)C(=O)O)cc1` [Example 12A, 2-Methyl-2-(4-{2-[5-methyl-2-(3-phenethylphenyl)oxazol-4-yl]ethoxy}phenoxy)-propionic acid] was 170%.
The value for `CCc1ccc(-c2nc(CCOc3ccc(OC(C)(C)C(=O)O)cc3)c(C)o2)cc1` [Example 13, 2-(4-{2-[2-(4-Ethylphenyl)-5-methyloxazol-4-yl]ethoxy}phenoxy)-2-methylpropionic acid] was 109%; that for `Cc1oc(-c2ccc(OC3CCCCC3)cc2)nc1CCOc1ccc(OC(C)(C)C(=O)O)cc1` [Example 21, 2-(4-{2-[2-(4-Cyclohexyloxy-phenyl)-5-methyl-oxazol-4-yl]-ethoxy}-phenoxy)-2-methyl-propionic acid] was 85%; that for `Cc1cc(OCCc2nc(-c3ccccc3)oc2C)ccc1OC(C)(C)C(=O)O` [Example 24, 2-Methyl-2-{2-methyl-4-[2-(5-methyl-2-phenyloxazol-4-yl)ethoxy]phenoxy}propionic acid] was 94%.
The value for `CCCc1cc(OCCc2nc(-c3ccccc3)oc2C)ccc1OCC(=O)O` [Example 26, {4-[2-(5-methyl-2-phenyl-oxazol-4-yl)ethoxy]-2-propylphenoxy}acetic acid] was 52%.
For the molecule `CCCc1cc(OCCc2nc(-c3ccccc3)oc2C)ccc1OC(C)(C)C(=O)O` [Example 26A, 2-Methyl-2-{4-[2-(5-methyl-2-phenyloxazol-4-yl)ethoxy]-2-propylphenoxy}propionic acid], the Emax amounted to 74%.
To `CCCc1cc(OC(C)(C)C(=O)O)ccc1OCCc1nc(-c2ccccc2)oc1C` [Example 27A, 2-Methyl-2-{4-[2-(5-methyl-2-phenyloxazol-4-yl)ethoxy]-3-propylphenoxy}propionic acid] belongs 63%; to `CCc1cc(OCCc2nc(-c3ccccc3)oc2C)ccc1OC(C)(C)C(=O)O` [Example 30A, 2-{2-Ethyl-4-[2-(5-methyl-2-phenyloxazol-4-yl)ethoxy]phenoxy}2-methylpropionic acid], 92%; to `Cc1oc(-c2ccccc2)nc1CCOc1ccc(OC(C)(C)C(=O)O)c(CC(C)C)c1` [Example 30C, 2-{2-Isobutyl-4-[2-(5-methyl-2-phenyloxazol-4-yl)ethoxy]phenoxy}-2-methylpropionic acid], 63%.
To `Cc1oc(-c2ccccc2)nc1CCOc1ccc(OC(C)(C)C(=O)O)c(CCc2ccccc2)c1` [Example 30J, 2-Methyl-2-{4-[2-(5-methyl-2-phenyloxazol-4-yl)ethoxy]-2-phenethylphenoxy}propionic acid] belongs 50%; to `CCCCc1cc(OC(C)(C)C(=O)O)ccc1OCCc1nc(-c2ccccc2)oc1C` [Example 31F, 2-{3-Butyl-4-[2-(5-methyl-2-phenyloxazol-4-yl)ethoxy]phenoxy}-2-methylpropionic acid], 51%.
Take `Cc1oc(-c2ccccc2)nc1CCOc1ccc(OC(C)(C)C(=O)O)c(Cc2ccccc2)c1` [Example 32, 2-{2-Benzyl-4-[2-(5-methyl-2-phenyloxazol-4-yl)ethoxy]phenoxy}-2-methylpropionic acid]: the Emax is 80%.
To `Cc1oc(-c2ccccc2)nc1CCOc1ccc(OC(C)(C)C(=O)O)c2ccccc12` [Example 37, 2-Methyl-2-{4-[2-(5-methyl-2-phenyl-oxazol-4-yl)-ethoxy]-naphthalen-1-yloxy}-propionic acid] belongs 60%.
The value for `Cc1oc(-c2ccccc2)nc1CCOc1ccc(OC(C)(C)C(=O)O)c2c1CCCC2` [Example 38, 2-Methyl-2-{4-[2-(5-methyl-2-phenyl-oxazol-4-yl)-ethoxy]-5,6,7,8-tetrahydro-naphthalen-1-yloxy}-propionic acid] was 65%.
